# Biological target: T1, enzyme R39 (soluble D-alanyl-D-alanine carboxypeptidase produced by Actinomadura R39) (Actinomadura sp. R39, UniProt P39045)
# T1 construct: added to milk or serum samples
# Experiment: Enzymatic determination of penicillin G in milk with various D-amino acids or glycine as activators (Example 5)
# Assay type: biochemical
# Experimental: The process is the same as in example 3, except that the aqueous solution containing 100 mg/ml of D-alanine (test I) is respectively replaced by an aqueous solution containing 100 mg/ml of D-phenylalanine (test II), of D-serine (test III), of D-histidine (test IV), of D-methionine (test V), of D-2-aminobutyric acid (test VI), or by an aqueous solution containing 200 mg/ml of glycine (test VII).
# T1 sequence (P39045 50-515): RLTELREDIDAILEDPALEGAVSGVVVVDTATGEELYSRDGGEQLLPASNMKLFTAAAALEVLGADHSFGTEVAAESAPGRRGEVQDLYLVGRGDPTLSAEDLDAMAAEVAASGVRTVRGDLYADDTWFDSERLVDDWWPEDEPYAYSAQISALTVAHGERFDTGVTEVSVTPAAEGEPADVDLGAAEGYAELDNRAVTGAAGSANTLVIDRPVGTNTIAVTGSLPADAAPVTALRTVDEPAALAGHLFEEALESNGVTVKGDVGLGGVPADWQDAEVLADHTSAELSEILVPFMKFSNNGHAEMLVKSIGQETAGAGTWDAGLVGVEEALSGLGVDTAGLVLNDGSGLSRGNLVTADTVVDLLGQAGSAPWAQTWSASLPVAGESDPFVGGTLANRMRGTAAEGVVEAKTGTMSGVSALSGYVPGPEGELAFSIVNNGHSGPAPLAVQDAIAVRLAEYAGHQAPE
smiles,measurement,setting,value
"CC1(C)S[C@@H]2[C@H](NC(=O)Cc3ccccc3)C(=O)N2[C@H]1C(=O)O [penicillin G, benzyl penicillin (penicillin G)]",Coloration,"penicillin G 0.003 I.U./ml in 3 ml milk, test I, activator D-alanine 100 mg/ml",pale yellow
same,Coloration,"penicillin G 0.003 I.U./ml in 3 ml milk, test II, activator D-phenylalanine 100 mg/ml",pale yellow
same,Coloration,"penicillin G 0.003 I.U./ml in 3 ml milk, test III, activator D-serine 100 mg/ml",pale yellow
same,Coloration,"penicillin G 0.003 I.U./ml in 3 ml milk, test IV, activator D-histidine 100 mg/ml",pale yallow
same,Coloration,"penicillin G 0.003 I.U./ml in 3 ml milk, test V, activator D-methionine 100 mg/ml",pale yellow
same,Coloration,"penicillin G 0.003 I.U./ml in 3 ml milk, test VI, activator D-2-aminobutyric acid 100 mg/ml",pale yellow
same,Coloration,"penicillin G 0.003 I.U./ml in 3 ml milk, test VII, activator glycine 200 mg/ml",pale yellow
same,Coloration,"penicillin G 0.006 I.U./ml in 3 ml milk, test I, activator D-alanine 100 mg/ml",white
same,Coloration,"penicillin G 0.006 I.U./ml in 3 ml milk, test II, activator D-phenylalanine 100 mg/ml",white
same,Coloration,"penicillin G 0.006 I.U./ml in 3 ml milk, test III, activator D-serine 100 mg/ml",white
same,Coloration,"penicillin G 0.006 I.U./ml in 3 ml milk, test IV, activator D-histidine 100 mg/ml",white
same,Coloration,"penicillin G 0.006 I.U./ml in 3 ml milk, test V, activator D-methionine 100 mg/ml",white
same,Coloration,"penicillin G 0.006 I.U./ml in 3 ml milk, test VI, activator D-2-aminobutyric acid 100 mg/ml",white
same,Coloration,"penicillin G 0.006 I.U./ml in 3 ml milk, test VII, activator glycine 200 mg/ml",white
